Measured values published in PubChem BioAssay (NCI).
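Values below derive from 48-hour exposures of cells grown in 96-well plates, with endpoints linearly interpolated between the two concentrations bracketing the appropriate inhibition level. TGI: total growth inhibition.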

Experiments:
Test in all cases: NCI-60 cell line screen, 48 h
[1] = test system: 786-0 renal
[2] = test system: A498 renal
[3] = test system: ACHN renal
[4] = test system: BT-549 breast
[5] = test system: CAKI-1 renal
[6] = test system: COLO 205 colon
[7] = test system: DU-145 prostate
[8] = test system: EKVX NSCLC
[9] = test system: HCC-2998 colon
[10] = test system: HCT-116 colon
[11] = test system: HCT-15 colon
[12] = test system: HL-60(TB) leukemia
[13] = test system: HOP-62 NSCLC
[14] = test system: HOP-92 NSCLC
[15] = test system: HS 578T breast
[16] = test system: HT29 colon
[17] = test system: IGROV1 ovarian
[18] = test system: K-562 leukemia
[19] = test system: KM12 colon
[20] = test system: LOX IMVI melanoma
[21] = test system: MALME-3M melanoma
[22] = test system: MCF7 breast
[23] = test system: MDA-MB-231 breast
[24] = test system: MDA-MB-435
[25] = test system: MDA-N
[26] = test system: MOLT-4 leukemia
[27] = test system: NCI-H23 lung
[28] = test system: NCI-H460 lung
[29] = test system: NCI-H522 lung
[30] = test system: NCI/ADR-RES ovarian
[31] = test system: OVCAR-3 ovarian
[32] = test system: OVCAR-4 ovarian
[33] = test system: OVCAR-5 ovarian
[34] = test system: OVCAR-8 ovarian
[35] = test system: PC-3 prostate
[36] = test system: RPMI-8226 leukemia
[37] = test system: RXF 393 renal
[38] = test system: SF-268 CNS
[39] = test system: SF-295 CNS
[40] = test system: SK-MEL-2 melanoma
[41] = test system: SK-MEL-28 melanoma
[42] = test system: SK-MEL-5 melanoma
[43] = test system: SK-OV-3 ovarian
[44] = test system: SN12C renal
[45] = test system: SNB-75 CNS
[46] = test system: SW-620 colon
[47] = test system: T-47D breast
[48] = test system: TK-10 renal
[49] = test system: U251 CNS
[50] = test system: UACC-257 melanoma
[51] = test system: UACC-62 melanoma
[52] = test system: A549 NSCLC
[53] = test system: CCRF-CEM leukemia
[54] = test system: M14 melanoma
[55] = test system: NCI-H226 lung
[56] = test system: SF-539 CNS
[57] = test system: SNB-19 CNS
[58] = test system: UO-31 renal

In the case of `OC1CCCN(C2(c3cccs3)CCCCC2)C1` (centres undefined), the TGI [1] is reported as > 100 µM, the TGI [2] is reported as > 100 µM and the TGI [3] is reported as > 100 µM. The TGI [4] was > 100 µM, the TGI [5] was > 100 µM and the TGI [6] was > 100 µM. The TGI [7] was > 100 µM, the TGI [8] was > 100 µM and the TGI [9] was > 100 µM. For the same molecule, the TGI [10] was > 100 µM, the TGI [11] was > 100 µM and the TGI [12] was > 100 µM. For the same molecule, the TGI [13] was > 100 µM, the TGI [14] was > 100 µM and the TGI [15] was > 100 µM. For the same molecule, the TGI [16] was > 100 µM, the TGI [17] was > 100 µM and the TGI [18] was > 100 µM. For the same molecule, the TGI [19] was > 100 µM, the TGI [20] was > 100 µM and the TGI [21] was > 100 µM. For the same molecule, the TGI [22] was > 100 µM, the TGI [23] was > 100 µM and the TGI [24] was > 100 µM. The TGI [25] was > 100 µM, the TGI [26] was > 100 µM and the TGI [27] was > 100 µM. The TGI [28] was > 100 µM, the TGI [29] was > 100 µM and the TGI [30] was > 100 µM. For the same molecule, the TGI [31] was > 100 µM, the TGI [32] was > 100 µM and the TGI [33] was > 100 µM. The TGI [34] was > 100 µM, the TGI [35] was > 100 µM and the TGI [36] was > 100 µM. The TGI [37] was > 100 µM, the TGI [38] was > 100 µM and the TGI [39] was > 100 µM. For the same molecule, the TGI [40] was > 100 µM, the TGI [41] was > 100 µM and the TGI [42] was > 100 µM. The TGI [43] was > 100 µM, the TGI [44] was > 100 µM and the TGI [45] was > 100 µM. The TGI [46] was > 100 µM, the TGI [47] was > 100 µM and the TGI [48] was > 100 µM. For the same molecule, the TGI [49] was > 100 µM, the TGI [50] was > 100 µM and the TGI [51] was > 100 µM.

With `NS(=O)(=O)c1ccc(NC(=S)/N=C/c2c(O)c3ccccc3oc2=O)cc1` the TGI [1] was > 100 µM, the TGI [2] was 64.1 µM and the TGI [52] was > 100 µM. For the same molecule, the TGI [3] was > 100 µM, the TGI [4] was > 100 µM and the TGI [5] was 62.4 µM. For the same molecule, the TGI [53] was > 100 µM, the TGI [6] was > 100 µM and the TGI [7] was > 100 µM. For the same molecule, the TGI [8] was > 100 µM, the TGI [9] was > 100 µM and the TGI [10] was > 100 µM. For the same molecule, the TGI [11] was > 100 µM, the TGI [12] was > 100 µM and the TGI [13] was > 100 µM. The TGI [14] was 68.1 µM, the TGI [15] was 99.6 µM and the TGI [16] was > 100 µM. For the same molecule, the TGI [17] was 97.1 µM, the TGI [18] was > 100 µM and the TGI [19] was > 100 µM. For the same molecule, the TGI [20] was > 100 µM, the TGI [54] was > 100 µM and the TGI [22] was > 100 µM. For the same molecule, the TGI [23] was 65 µM, the TGI [24] was > 100 µM and the TGI [25] was > 100 µM. For the same molecule, the TGI [26] was > 100 µM, the TGI [55] was 61 µM and the TGI [27] was > 100 µM. For the same molecule, the TGI [28] was > 100 µM, the TGI [29] was 88.6 µM and the TGI [30] was > 100 µM. For the same molecule, the TGI [31] was > 100 µM, the TGI [32] was > 100 µM and the TGI [33] was > 100 µM. The TGI [34] was > 100 µM, the TGI [35] was > 100 µM and the TGI [36] was > 100 µM. For the same molecule, the TGI [37] was 80.9 µM, the TGI [38] was > 100 µM and the TGI [39] was > 100 µM. The TGI [56] was > 100 µM, the TGI [40] was > 100 µM and the TGI [42] was 96.1 µM. For the same molecule, the TGI [43] was > 100 µM, the TGI [44] was > 100 µM and the TGI [57] was 85.5 µM. For the same molecule, the TGI [45] was 53.3 µM, the TGI [46] was > 100 µM and the TGI [47] was > 100 µM. The TGI [48] was > 100 µM, the TGI [49] was > 100 µM and the TGI [50] was > 100 µM. The TGI [51] was > 100 µM and the TGI [58] was 87.6 µM.

Molecule `O=C(C1OC1c1ccc(F)cc1)C12CC3CC(CC(C3)C1)C2` (centres undefined) has a TGI [1] of 36.5 µM, a TGI [2] of 58 µM and a TGI [52] of 59.7 µM. For the same molecule, the TGI [3] was 85 µM, the TGI [4] was 67.3 µM and the TGI [5] was 57 µM. For the same molecule, the TGI [53] was 37 µM, the TGI [6] was 30.9 µM and the TGI [7] was > 100 µM. For the same molecule, the TGI [8] was 45.1 µM, the TGI [9] was 36.8 µM and the TGI [10] was 20.1 µM. It also gave a TGI [11] of 56.7 µM, a TGI [12] of 31.1 µM and a TGI [13] of 70.8 µM. For the same molecule, the TGI [14] was 52.7 µM, the TGI [15] was 60.1 µM and the TGI [16] was 45.4 µM. For the same molecule, the TGI [17] was 59.8 µM, the TGI [18] was 37.2 µM and the TGI [19] was 46.8 µM. For the same molecule, the TGI [20] was 12.3 µM, the TGI [54] was 31.4 µM and the TGI [21] was 78.6 µM. It also gave a TGI [22] of 95.4 µM, a TGI [23] of 52.8 µM and a TGI [24] of 26.2 µM. The TGI [25] was 32.5 µM, the TGI [26] was 35.3 µM and the TGI [55] was 46.6 µM. The TGI [27] was 43.4 µM, the TGI [28] was 31.1 µM and the TGI [29] was 38.2 µM. The TGI [30] was 48.1 µM, the TGI [31] was 33.5 µM and the TGI [32] was 40.2 µM. The TGI [33] was 54.7 µM, the TGI [34] was 29 µM and the TGI [35] was > 100 µM. The TGI [37] was 32.7 µM, the TGI [38] was 61.2 µM and the TGI [39] was 79.1 µM. For the same molecule, the TGI [56] was 45.7 µM, the TGI [40] was 30.6 µM and the TGI [41] was 59 µM. The TGI [42] was 30.7 µM, the TGI [43] was 70.3 µM and the TGI [44] was 44.4 µM. For the same molecule, the TGI [57] was > 100 µM, the TGI [45] was > 100 µM and the TGI [46] was 44.2 µM. The TGI [47] was > 100 µM, the TGI [48] was > 100 µM and the TGI [49] was 24.5 µM. For the same molecule, the TGI [50] was 86.6 µM, the TGI [51] was 38.7 µM and the TGI [58] was 51.5 µM.
